# Reference: PubChem BioAssay (NCI)
#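 Where inhibition never reached the appropriate level, the endpoint shown equals the highest concentration tested. Otherwise, values were interpolated linearly from a five-concentration, 48-hour dose response in 96-well plates. The concentration for full growth arrest is given as TGI.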
# How the values were obtained:
# Assay in all cases: inhibition of tumour cell growth, NCI panel, 48 h
# 786-0 renal = test system: 786-0 renal
# A498 renal = test system: A498 renal
# A549 NSCLC = test system: A549 NSCLC
# ACHN renal = test system: ACHN renal
# BT-549 breast = test system: BT-549 breast
# CAKI-1 renal = test system: CAKI-1 renal
# CCRF-CEM leukemia = test system: CCRF-CEM leukemia
# COLO 205 colon = test system: COLO 205 colon
# DU-145 prostate = test system: DU-145 prostate
# EKVX NSCLC = test system: EKVX NSCLC
# HCC-2998 colon = test system: HCC-2998 colon
# HCT-116 colon = test system: HCT-116 colon
# HCT-15 colon = test system: HCT-15 colon
# HL-60(TB) leukemia = test system: HL-60(TB) leukemia
# HOP-62 NSCLC = test system: HOP-62 NSCLC
# HOP-92 NSCLC = test system: HOP-92 NSCLC
# HS 578T breast = test system: HS 578T breast
# HT29 colon = test system: HT29 colon
# K-562 leukemia = test system: K-562 leukemia
# KM12 colon = test system: KM12 colon
# LOX IMVI melanoma = test system: LOX IMVI melanoma
# M14 melanoma = test system: M14 melanoma
# MALME-3M melanoma = test system: MALME-3M melanoma
# MCF7 breast = test system: MCF7 breast
# MDA-MB-231 breast = test system: MDA-MB-231 breast
# MDA-MB-435 = test system: MDA-MB-435
# MDA-N = test system: MDA-N
# MOLT-4 leukemia = test system: MOLT-4 leukemia
# NCI-H226 lung = test system: NCI-H226 lung
# NCI-H23 lung = test system: NCI-H23 lung
# NCI-H460 lung = test system: NCI-H460 lung
# NCI-H522 lung = test system: NCI-H522 lung
# NCI/ADR-RES ovarian = test system: NCI/ADR-RES ovarian
# OVCAR-3 ovarian = test system: OVCAR-3 ovarian
# OVCAR-4 ovarian = test system: OVCAR-4 ovarian
# OVCAR-5 ovarian = test system: OVCAR-5 ovarian
# OVCAR-8 ovarian = test system: OVCAR-8 ovarian
# RPMI-8226 leukemia = test system: RPMI-8226 leukemia
# RXF 393 renal = test system: RXF 393 renal
# SF-268 CNS = test system: SF-268 CNS
# SF-295 CNS = test system: SF-295 CNS
# SF-539 CNS = test system: SF-539 CNS
# SK-MEL-2 melanoma = test system: SK-MEL-2 melanoma
# SK-MEL-28 melanoma = test system: SK-MEL-28 melanoma
# SK-MEL-5 melanoma = test system: SK-MEL-5 melanoma
# SK-OV-3 ovarian = test system: SK-OV-3 ovarian
# SN12C renal = test system: SN12C renal
# SNB-19 CNS = test system: SNB-19 CNS
# SR leukemia = test system: SR leukemia
# SW-620 colon = test system: SW-620 colon
# T-47D breast = test system: T-47D breast
# TK-10 renal = test system: TK-10 renal
# U251 CNS = test system: U251 CNS
# UACC-257 melanoma = test system: UACC-257 melanoma
# UACC-62 melanoma = test system: UACC-62 melanoma
# UO-31 renal = test system: UO-31 renal
smiles,measurement,setting,value
COc1ccccc1N1C(=O)/C(=C\c2cc(OC)c(OC)c(OC)c2)SC1c1ccccc1 (stereo unspecified),TGI,786-0 renal,> 100 µM
same,TGI,A498 renal,> 100 µM
same,TGI,A549 NSCLC,> 100 µM
same,TGI,ACHN renal,> 100 µM
same,TGI,BT-549 breast,> 100 µM
same,TGI,CAKI-1 renal,> 100 µM
same,TGI,CCRF-CEM leukemia,45.5 µM
same,TGI,COLO 205 colon,> 100 µM
same,TGI,DU-145 prostate,> 100 µM
same,TGI,EKVX NSCLC,> 100 µM
same,TGI,HCC-2998 colon,> 100 µM
same,TGI,HCT-116 colon,> 100 µM
same,TGI,HCT-15 colon,> 100 µM
same,TGI,HL-60(TB) leukemia,> 100 µM
same,TGI,HOP-62 NSCLC,> 100 µM
same,TGI,HOP-92 NSCLC,> 100 µM
same,TGI,HS 578T breast,> 100 µM
same,TGI,HT29 colon,> 100 µM
same,TGI,K-562 leukemia,38.2 µM
same,TGI,KM12 colon,> 100 µM
same,TGI,LOX IMVI melanoma,> 100 µM
same,TGI,M14 melanoma,91.7 µM
same,TGI,MALME-3M melanoma,81.4 µM
same,TGI,MCF7 breast,> 100 µM
same,TGI,MDA-MB-231 breast,> 100 µM
same,TGI,MDA-MB-435,53.5 µM
same,TGI,MDA-N,42.5 µM
same,TGI,MOLT-4 leukemia,> 100 µM
same,TGI,NCI-H226 lung,> 100 µM
same,TGI,NCI-H23 lung,> 100 µM
same,TGI,NCI-H460 lung,> 100 µM
same,TGI,NCI-H522 lung,> 100 µM
same,TGI,NCI/ADR-RES ovarian,> 100 µM
same,TGI,OVCAR-3 ovarian,> 100 µM
same,TGI,OVCAR-4 ovarian,> 100 µM
same,TGI,OVCAR-5 ovarian,> 100 µM
same,TGI,OVCAR-8 ovarian,> 100 µM
same,TGI,RPMI-8226 leukemia,25.4 µM
same,TGI,RXF 393 renal,> 100 µM
same,TGI,SF-268 CNS,> 100 µM
same,TGI,SF-295 CNS,> 100 µM
same,TGI,SF-539 CNS,> 100 µM
same,TGI,SK-MEL-2 melanoma,> 100 µM
same,TGI,SK-MEL-28 melanoma,> 100 µM
same,TGI,SK-MEL-5 melanoma,> 100 µM
same,TGI,SK-OV-3 ovarian,> 100 µM
same,TGI,SN12C renal,> 100 µM
same,TGI,SNB-19 CNS,> 100 µM
same,TGI,SR leukemia,72.7 µM
same,TGI,SW-620 colon,> 100 µM
same,TGI,T-47D breast,> 100 µM
same,TGI,TK-10 renal,> 100 µM
same,TGI,U251 CNS,> 100 µM
same,TGI,UACC-257 melanoma,> 100 µM
same,TGI,UACC-62 melanoma,> 100 µM
same,TGI,UO-31 renal,> 100 µM
